Assays:
[1] = dog, in vivo
[2] = human, in vivo, cited from earlier work

Compound: O=[As]O[As]=O (stereo not drawn) [SV100]
- oral absorption [1]: very limited absorption
- oral bioavailability (F^b %) [1]: < 10%

Compound: arsenic acid [Asv]
- level in plasma [2]: relatively low levels

Compound: arsenious acid [AsIII]
- time to peak plasma concentration (end of infusion) ([2]; 0.15 mg/kg): 2 h
- accumulation, Day 25 versus Day 1 of Cycle 1 [2]: ~2 fold
- mean elimination half-life [2]: 10 to 14 h
- renal clearance [2]: 9 L/h
- total clearance [2]: 49 L/h
- volume of distribution (Vss) [2]: 562 L
